# Reference: patent publication US20220204510A1, “2,3-DIHYDRO-1H-PYRROLIZINE-7-FORMAMIDE DERIVATIVE AND APPLICATION THEREOF” (CHIA TAI TIANQING PHARMACEUTICAL GROUP CO., LTD., priority 2018, published 2022)
# Columns and labels:
# hERG potassium channel = hERG potassium channel (Homo sapiens, UniProt Q12809); experiment: Inhibition test of the hERG potassium channel (automatic patch clamp, CHO-hERG cells); type: cell-based; conditions: QPatch whole-cell patch clamp, room temperature
# Description: To assay the effect of the compound disclosed herein on hERG potassium channel by using automatic patch-clamp method.
# The cells stably expressing the hERG potassium channel used in the experiment were CHO-hERE from Aviva Biosciences. CHO-hERG was cultured at 37° C. in 5% CO2.
# The CHO-hERG cells used in the experiment were cultured for at least two days, and the cell density reached 75% or more. Before the experiment, the cells were digested with TrypLE, and then the collected cells were resuspended in extracellular fluid.
# The extracellular fluid needed to be prepared once a month. The intracellular fluid must be frozen in aliquots at −20° C.
# The test compound and its positive control amitriptyline were dissolved in DMSO to obtain a stock solution at a certain concentration. […]
# With a holding potential of −80 mv, a voltage stimulation of −50 my was applied for 80 ms to record the cell leakage current value; then hERG channel was opened by a depolarization to +20 my for 4800 ms and hERG tail current was elicited by a repolarization to −50 my for 5000 ms and recorded; and finally, the voltage was restored to the holding potential of −80 my and maintained for 3100 ms. […]
# In each complete current recording, the inhibition percentage of each compound at the action concentration could be calculated based on the percentage of peak current in the negative control. […]
# [1] = Experiment on cytotoxicity (CellTiter-Glo, 3 days); type: cell-based; conditions: 3 days incubation, read-out: 50% cytotoxic concentration (CC50)
# Description: • 1. The compound was diluted with DMSO (dimethyl sulfoxide) in a 3-fold gradient for 9 concentrations, and added into a 96-well plate in duplicate. The compound concentration was 200-fold of the final test concentration. • 2. The cells were rinsed with PBS (phosphate buffered saline) once, added with 0.25% trypsin and digested for about 2-5 min in a 37° C., 5% CO2 incubator. Then the digestion was terminated with a cell culture medium and the cells were dispersed into single cells by pipetting with a pipettor. • 3. The cell density was counted with a cell counter, and adjusted to the required density with the medium. • 4. The cells were added into a 96-well plate that had been added with the compound. The final concentration of DMSO in each well was 0.5%. Wells containing 0.5% DMSO were used as non-toxic negative controls, and wells containing the cell culture medium were used as 100% cytotoxicity controls. Then the cell plate was incubated in a 37° C., 5% CO2 cell incubator for 3 days. • 5. The chemiluminescence signal (RLU, relative chemiluminescence unit) of each well in the cell plate was detected with the cell viability detection kit CellTiter-Glo using the multi-functional microplate reader Envision, with instructions on the kit followed. • 6. The raw data (RLU) were substituted into the following formula to calculate the cell viability of each well (cell viability %): […]
# [2] = Experiment on the liver-to-blood ratio in Balb/c mice, oral administration; type: in vivo; conditions: oral 3 mg/kg, Balb/c female mice; for AUC0-last: Liver; for Kp / AUC(0-t): mouse; for Kp: liver (tissue homogenate) / plasma, read-out: AUC Ratio (L/P) Liver/plasma exposure ratio; for AUC(0-t): Plasma
# Description: Experiment on the liver-to-blood ratio in Balb/c mice orally administered with the test compound Compound 18 was mixed with an aqueous solution containing 10% polyethylene glycol-15 hydroxystearate, and the mixture was vortexed and sonicated to prepare a 0.3 mg/mL uniform suspension for later use. Balb/c female mice aged 7 to 10 weeks were orally administered with the candidate compound solution at a dose of 3 mg/kg. Whole blood at a certain time point was collected and plasma was prepared. Liver tissues at the corresponding time point were collected to prepare a tissue homogenate. Drug concentration was analyzed by LC-MS/MS and pharmacokinetic parameters were calculated with Phoenix WinNonlin software. Compound 25 was mixed with an aqueous solution containing 10% polyethylene glycol-15 hydroxystearate, and the mixture was vortexed and sonicated to prepare a 0.3 mg/mL clear solution for later use. Balb/c female mice aged 7 to 10 weeks were orally administered with the candidate compound solution at a dose of 3 mg/kg. Whole blood at a certain time point was collected and plasma was prepared. Liver tissues at the corresponding time point were collected to prepare a tissue homogenate. Drug concentration was analyzed by LC-MS/MS and pharmacokinetic parameters were calculated with Phoenix WinNonlin software.
# Chain of hERG potassium channel (Q12809 whole entry): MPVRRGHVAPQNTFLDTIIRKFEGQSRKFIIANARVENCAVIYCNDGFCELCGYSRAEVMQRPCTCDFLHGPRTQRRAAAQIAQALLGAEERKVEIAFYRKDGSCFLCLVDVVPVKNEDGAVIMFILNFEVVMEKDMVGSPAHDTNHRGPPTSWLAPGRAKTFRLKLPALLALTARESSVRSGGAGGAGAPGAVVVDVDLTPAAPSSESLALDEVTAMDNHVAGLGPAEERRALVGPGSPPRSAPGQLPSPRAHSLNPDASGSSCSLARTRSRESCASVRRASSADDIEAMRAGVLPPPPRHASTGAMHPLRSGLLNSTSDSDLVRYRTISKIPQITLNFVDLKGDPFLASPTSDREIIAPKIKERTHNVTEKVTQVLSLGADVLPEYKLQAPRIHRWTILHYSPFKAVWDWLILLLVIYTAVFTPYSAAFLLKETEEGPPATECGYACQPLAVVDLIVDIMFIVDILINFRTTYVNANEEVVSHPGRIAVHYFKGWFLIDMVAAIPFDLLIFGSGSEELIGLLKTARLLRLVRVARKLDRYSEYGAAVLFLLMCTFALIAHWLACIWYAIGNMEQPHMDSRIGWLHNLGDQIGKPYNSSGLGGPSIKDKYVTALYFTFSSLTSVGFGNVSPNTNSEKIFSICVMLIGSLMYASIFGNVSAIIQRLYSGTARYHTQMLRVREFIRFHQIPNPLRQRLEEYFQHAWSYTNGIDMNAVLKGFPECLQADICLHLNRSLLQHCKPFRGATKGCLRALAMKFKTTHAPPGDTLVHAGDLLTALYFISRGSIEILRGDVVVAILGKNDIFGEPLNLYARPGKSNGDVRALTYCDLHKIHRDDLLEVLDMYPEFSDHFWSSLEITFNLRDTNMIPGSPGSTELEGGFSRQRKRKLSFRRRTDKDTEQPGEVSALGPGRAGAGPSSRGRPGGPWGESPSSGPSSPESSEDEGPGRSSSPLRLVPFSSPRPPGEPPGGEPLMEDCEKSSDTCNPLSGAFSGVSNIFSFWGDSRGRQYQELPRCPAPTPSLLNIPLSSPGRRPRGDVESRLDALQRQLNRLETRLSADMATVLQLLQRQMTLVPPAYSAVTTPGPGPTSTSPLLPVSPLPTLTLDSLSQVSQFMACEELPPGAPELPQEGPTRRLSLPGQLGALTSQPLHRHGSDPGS
Compound,IC50 (hERG potassium channel),CC50 at 3 days [1],AUC0-last [2],Kp [2],AUC(0-t) [2]
C[C@]1(NC(=O)C(=O)c2c(Cl)c(C(=O)Nc3ccc(F)c(F)c3)c3n2CCC3)CC[C@H](CC(=O)O)CC1 [Compound 18],> 40 µM,> 50 µM,75412 nmol·h/kg,20.4,3.69 µM·h
C[C@]1(NC(=O)C(=O)c2c(Cl)c(C(=O)Nc3cc(F)c(F)c(F)c3)c3n2CCC3)CC[C@H](CC(=O)O)CC1 [Compound 25],> 40 µM,> 50 µM,86036 nmol·h/kg,24.7,3.48 µM·h
